Results reported in patent US7119076B2, “Preventives or remedies for endometriosis or uterine myoma” (priority 2000, dated 2006).

System: endometriosis model rats
Assay: Therapeutic effect in endometriosis model rats (autotransplanted uterine tissue on peritoneum), histology of lesion
Format: in vivo, Sprague-Dawley rats (female)
Conditions: oral, lesion excised seven days after preparation; for invasion of mast cells in lesion sample: light and electron microscopy; for degree of interstitial proliferative lesion: versus control group
Experimental: Endometriosis model rats were prepared by the method described in Michael W. Vernon et al., FERTILITY AND STERILITY, Vol. 44, No. 5, Nov. 1985. That is, endometriosis model rats were prepared as follows: Sprague-Dawley rats (female) of 8 weeks old were acclimatized for 2 weeks under 12 hours light-dark condition. From each rat, right uterine horn was excised under general anesthesia with sevoflurane and ketamine hydrochloride, and a tissue piece sizing 5 mm×5 mm was prepared therefrom. The tissue piece was subjected to autotransplantation such that the endometrium surface is attached to peritoneum.
From 24 hours after the preparation of the endometriosis model rats, commercially available clarithromycin tablets (trademark “Clarith Tablet 50 for Children” prepared by Taisho Pharmaceutical Co., Ltd) were orally administered to the rats for 3 days. […] Clarithromycin was not administered to control animals. Seven days after the preparation of the model rats, at which the model lesion reached its peak, the peritoneum tissue including the graft up to the abdominal muscle was excised to obtain a lesion sample. From the thus obtained samples, light microscope specimens (hematoxylin-eosin staining, toluidine blue staining) and electron microscope specimens (uranium-lead double staining) were prepared, and the existence of invaded mast cells, which is a symptom of endometriosis, and the degree of interstitial proliferative lesion were observed.

[1] = 10 mg/kg per day for 3 days from 24 hours after model preparation
[2] = 6 mg/kg per day for 3 days from 24 hours after model preparation

| SMILES | invasion of mast cells in lesion sample [1] | degree of interstitial proliferative lesion [1] | invasion of mast cells in lesion sample [2] | degree of interstitial proliferative lesion [2] |
| --- | --- | --- | --- | --- |
| CC[C@H]1OC(=O)[C@H](C)[C@@H](O[C@H]2C[C@@](C)(OC)[C@@H](O)[C@H](C)O2)[C@H](C)[C@@H](O[C@@H]2O[C@H](C)C[C@H](N(C)C)[C@H]2O)[C@](C)(O)C[C@@H](C)CN(C)[C@H](C)[C@@H](O)[C@]1(C)O [azithromycin] | not observed | apparently reduced | – | – |
| CC[C@H]1OC(=O)[C@H](C)[C@@H](O[C@H]2C[C@@](C)(OC)[C@@H](O)[C@H](C)O2)[C@H](C)[C@@H](O[C@@H]2O[C@H](C)C[C@H](N(C)C)[C@H]2O)[C@](C)(OC)C[C@@H](C)C(=O)[C@H](C)[C@@H](O)[C@]1(C)O [clarithromycin] | not observed | apparently reduced | – | – |
| CC[C@H]1OC(=O)[C@H](C)[C@@H](O[C@H]2C[C@@](C)(OC)[C@@H](O)[C@H](C)O2)[C@H](C)[C@@H](O[C@@H]2O[C@H](C)C[C@H](N(C)C)[C@H]2O)[C@](C)(O)C[C@@H](C)/C(=N\OCOCCOC)[C@H](C)[C@@H](O)[C@]1(C)O [roxithromycin] | – | – | not observed | apparently reduced |
